Measured values as given in article PMC10862539, “Chelation of Mitochondrial Iron as an Antiparasitic Strategy” (ACS Infectious Diseases, 2024).
Where two headings read alike, the source gives them in different places.

Legend:
P. falciparum = assay: Drug sensitivity assay, P. falciparum (SYBR green I); assay type: cell-based, Plasmodium falciparum; settings: Plasmodium falciparum, 48 h, read-out: control EC50
Method: (§1) All organisms were cultivated according to the conditions summarized in Table S2, which also includes strain specifications. Dose–response curves were obtained by their cultivation on 96 well plates in a 2-fold series dilution of the appropriate drug, in a total volume of 200 μL (with the exception of P. falciparum, where the total volume was 100 μL). Iron supplementation was achieved by mixing the compound with Fe-NTA in an equimolar ratio prior to setting up the experiment. Results were plotted and processed using Prism 8.0 (GraphPad Software). A two-tailed unpaired t-test was performed to assess the significance of the difference between mitoDFO with and without added iron. Selectivity was calculated as the ratio of the average EC50 value for human fibroblasts to the average EC50 value for the appropriate pathogen. All data were obtained from a minimum of three independent biological replicates.

murine macrophage [1] = assay: Murine macrophage axenic monoculture EC50; assay type: cell-based, mouse; settings: axenic monoculture, read-out: EC50 axenic murine macrophage
murine macrophage [2] = assay: Intracellular L. mexicana infection assay, macrophage population; assay type: cell-based, mouse; settings: infected macrophages, 72 h treatment, read-out: EC50 infection assay murine macrophage
Method: (§2) Approximately 10 000 murine macrophages per well were seeded on 96 well plate, and a suspension of 60 000 L. mexicana GFP-expressing promastigotes was added to each well and left to infect the mammal cells for 72 h in a cultivation medium under the conditions described in Table S2. 2-fold dilution series starting with 100 μM of either mitoDFO, DFO, or Amphotericin B in a regular growth medium were added, and cultures were incubated for further 72 h in the same conditions. Macrophage cells were washed and resuspended in growth medium and detached by pipetting, and their concentration in each well was measured on a Guava EasyCyte 8HT flow cytometer (Luminex). The GFP signal of internalized L. mexicana amastigotes in each macrophage was detected using a 488 nm excitation laser and a 525/30 nm detector. Median fluorescence graphs were plotted, and EC50 values for both macrophages and intracellular L. mexicana were calculated using Prism 8.0 (GraphPad Software).

C. albicans = assay: Drug sensitivity assay, C. albicans (OD600); assay type: cell-based, Candida albicans; settings: Candida albicans; reference compound; C. albicans; 48 h; read-out: control EC50
Method: as §1

[3] = tested on: intracellular Leishmania mexicana amastigotes; assay: Intracellular L. mexicana infection assay, GFP amastigotes in macrophages; assay type: cell-based; settings: intracellular amastigotes, 72 h treatment, read-out: EC50 infection assay Leishmania mexicana
Method: as §2

A. castellanii = assay: Drug sensitivity assay, A. castellanii (flow cytometry); assay type: cell-based, Acanthamoeba castellanii; settings: Acanthamoeba castellanii; reference compound; A. castellanii; 96 h; read-out: control EC50
Method: as §1

N. fowleri = assay: Drug sensitivity assay, N. fowleri (flow cytometry); assay type: cell-based; settings: Naegleria fowleri; reference compound; N. fowleri; 72 h; read-out: control EC50
Method: as §1

C. neoformans = assay: Drug sensitivity assay, C. neoformans (OD600); assay type: cell-based, Cryptococcus neoformans; settings: Cryptococcus neoformans; reference compound; C. neoformans; 72 h; read-out: control EC50
Method: as §1

L. mexicana (amastigote) = assay: Drug sensitivity assay, axenic L. mexicana amastigote (flow cytometry); assay type: cell-based, Leishmania mexicana
Method: as §1

L. major (promastigote) = assay: Drug sensitivity assay, L. major promastigote (flow cytometry); assay type: cell-based; settings: Leishmania major; reference compound; L. major (promastigote); 120 h; read-out: control EC50
Method: as §1

T. brucei 427 (BSF) = assay: Drug sensitivity assay, T. brucei 427 bloodstream form (resazurine); assay type: cell-based, Trypanosoma brucei; settings: Trypanosoma brucei
Method: as §1

B. divergens = assay: Drug sensitivity assay, B. divergens in bovine erythrocytes (flow cytometry); assay type: cell-based, Babesia divergens; settings: Babesia divergens, Erythrocyte; reference compound; B. divergens; 48 h; read-out: control EC50
Method: as §1

G. intestinalis = assay: Drug sensitivity assay, G. intestinalis (flow cytometry); assay type: cell-based; settings: Giardia duodenalis; reference compound; G. intestinalis; 24 h; read-out: control EC50
Method: as §1

T. gambiense (BSF) = assay: Drug sensitivity assay, T. gambiense bloodstream form (resazurine); assay type: cell-based, Trypanosoma gambiense; settings: Trypanosoma brucei; reference compound; T. gambiense (BSF); 72 h; read-out: control EC50
Method: as §1

T. brucei STIB (BSF) = assay: Drug sensitivity assay, T. brucei STIB bloodstream form (resazurine); assay type: cell-based, Trypanosoma brucei; settings: Trypanosoma brucei; reference compound; T. brucei STIB (BSF); 72 h; read-out: control EC50
Method: as §1

## CCN(CC)CCCC(C)Nc1ccnc2cc(Cl)ccc12 (stereo not drawn) [chloroquine, reference compound]
P. falciparum
  EC50: 0.015 ± 0.001 µM

## C[C@@H]1[C@H](O)[C@@H](C)/C=C/C=C/C=C/C=C/C=C/C=C/C=C/[C@H](O[C@@H]2O[C@H](C)[C@@H](O)[C@H](N)[C@@H]2O)C[C@@H]2O[C@](O)(C[C@@H](O)C[C@@H](O)[C@H](O)CC[C@@H](O)C[C@@H](O)CC(=O)O[C@H]1C)C[C@H](O)[C@H]2C(=O)O [AmpB, amphotericin B, reference compound]
Murine macrophage [1]; Mus musculus, Macrophage
  EC50: > 25 µM
Murine macrophage [2]; Mus musculus, Macrophage
  EC50: 29.1 ± 5.91 µM
C. albicans
  EC50: 1.5 ± 0.1 µM
[3]; Leishmania mexicana, Macrophage
  EC50: 3.77 ± 0.4 µM
A. castellanii
  EC50: 8.1 ± 1.6 µM
N. fowleri
  EC50: 0.069 ± 0.009 µM
C. neoformans
  EC50: 0.2 ± 0.1 µM
L. mexicana (amastigote); Leishmania mexicana, axenic monoculture, read-out: EC50 axenic Leishmania mexicana
  EC50: 0.33 ± 0.08 µM
L. mexicana (amastigote); Leishmania mexicana, reference compound, L. mexicana (amastigote), 120 h, read-out: control EC50
  EC50: 0.32 ± 0.035 µM
L. major (promastigote)
  EC50: 0.024 ± 0.008 µM

## CSc1ccc(OCc2ncc([N+](=O)[O-])n2C)cc1 [fexinidazole]
T. brucei 427 (BSF); T. brucei 427, comparison drug in text, read-out: EC50
  EC50: 4.84 µM

## O=C1C(O)=C([C@H]2CC[C@H](c3ccc(Cl)cc3)CC2)C(=O)c2ccccc21 [atovaquone, reference compound]
B. divergens
  EC50: 0.008 ± 0.001 µM

## O=C(Cn1ccnc1[N+](=O)[O-])NCc1ccccc1 [benznidazole]
G. intestinalis
  EC50: 2.6 ± 1.4 µM

## N=C(N)c1ccc(OCCCCCOc2ccc(C(=N)N)cc2)cc1 [pentamidine]
T. brucei 427 (BSF); reference compound, T. brucei 427 (BSF), 72 h, read-out: control EC50
  EC50: 0.007 ± 0.001 µM
T. gambiense (BSF)
  EC50: 0.002 ± 0.0005 µM
T. brucei STIB (BSF)
  EC50: 0.001 ± 0.0004 µM

## CN(C)CCOc1ccc(/C(=C(/CCCCCCCCCC[P+](c2ccccc2)(c2ccccc2)c2ccccc2)c2ccccc2)c2ccccc2)cc1 [MitoTam]
Murine macrophage [1]
  EC50: 0.39 µM
Murine macrophage [2]
  EC50: 0.26 µM
[3]
  EC50: ~0.1 µM
L. mexicana (amastigote); axenic monoculture, read-out: EC50 axenic Leishmania mexicana
  EC50: 0.35 µM
